# Results as given in patent publication US20060069132A1, “Azolecarboxamide herbicides” (priority 2004, published 2006).
# Columns and labels:
# morningglory [1] = test: Test B pre-/postemergence herbicide test; type: in vivo, Ipomoea coccinea; conditions: for Morningglory plant response rating: postemergence
# Summary of the method: (§1)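 Response was scored visually 13 to 15 days after treatment against untreated greenhouse controls, 0 meaning no effect and 100 complete control. Formulations (solvent mixture plus surfactant) went onto soil after planting, onto foliage of 1- to 4-leaf plants, and onto 2-leaf plants in a flooded paddy set including rice and barnyardgrass.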
# barnyardgrass [2] = test: Test B pre-/postemergence herbicide test; type: in vivo, Echinochloa crus-galli; conditions: for Barnyardgrass plant response rating: postemergence
# Summary of the method: as §1
# rice [3] = test: Test B pre-/postemergence herbicide test; type: in vivo, Oryza sativa; conditions: 0 = no effect, 100 = complete control, preemergence
# Summary of the method: (§2)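 Pre: seeds sown, then sprayed. Post: 1–4-leaf plants (2–18 cm) sprayed at the same time. Paddy: flooded, treated at 2-leaf stage. Formulation: non-phytotoxic solvent with surfactant. Greenhouse 13–15 days; visual 0–100 score relative to controls.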
# velvetleaf [4] = test: Test A pre-/postemergence herbicide test; type: in vivo, Abutilon theophrasti
# Summary of the method: (§3)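 Plants are held in greenhouse about ten days after treatment, then compared with untreated controls and scored 0 (no effect) to 100 (complete control). Preemergence dosing is a directed soil spray on sown sandy loam; postemergence dosing is spray to runoff at 2–10 cm height.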
# velvetleaf [5] = test: Test B pre-/postemergence herbicide test; type: in vivo, Abutilon theophrasti; conditions: for Velvetleaf plant response rating: postemergence
# Summary of the method: as §2
# barnyardgrass [6] = test: Test B flooded paddy test; type: in vivo, Echinochloa crus-galli; conditions: 1000 g ai/ha, scale 0 to 100 (0 no effect, 100 complete control)
# Summary of the method: (§4)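 Visual control ratings, 0–100 versus untreated controls, taken after 13 to 15 days in the greenhouse. Blackgrass received a postemergence spray at the 1- to 4-leaf stage (2–18 cm); ducksalad, umbrella sedge and barnyardgrass were flooded-paddy treated at 2 leaves.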
# large crabgrass [7] = test: Test A pre-/postemergence herbicide test; type: in vivo, Digitaria sanguinalis
# Summary of the method: as §3
# pigweed = test: Test B pre-/postemergence herbicide test; type: in vivo, Amaranthus retroflexus; conditions: for Pigweed plant response rating: postemergence
# Summary of the method: as §2
# ducksalad = test: Test B flooded paddy test; type: in vivo, Heteranthera limosa; conditions: 1000 g ai/ha, scale 0 to 100 (0 no effect, 100 complete control)
# Summary of the method: as §4
# wild oat = test: Test B postemergence herbicide test; type: in vivo, Avena fatua; conditions: postemergence
# Summary of the method: (§5)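 Plants grow to 1- to 4-leaf stage (2–18 cm) for postemergence spraying, or to 2-leaf stage for the paddy test. Formulated compound is applied. Greenhouse holding lasts 13–15 days. Response is scored visually relative to controls, 0 no effect to 100 complete control; a dash means no result.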
# blackgrass = test: Test B postemergence herbicide test; type: in vivo, Alopecurus myosuroides; conditions: postemergence
# Summary of the method: as §4
# cocklebur = test: Test B pre-/postemergence herbicide test; type: in vivo, Xanthium strumarium; conditions: for Cocklebur plant response rating: postemergence
# Summary of the method: as §1
# redroot pigweed = test: Test A pre-/postemergence herbicide test; type: in vivo, Amaranthus retroflexus
# Summary of the method: as §3
# morningglory [8] = test: Test A pre-/postemergence herbicide test; type: in vivo, Ipomoea spp.
# Summary of the method: as §3
# lambsquarters = test: Test B pre-/postemergence herbicide test; type: in vivo, Chenopodium album; conditions: for Lambsquarters plant response rating: postemergence
# Summary of the method: as §2
# corn = test: Test B pre-/postemergence herbicide test; type: in vivo, Zea mays; conditions: for Corn plant response rating: postemergence
# Summary of the method: as §2
# Surinam grass = test: Test B pre-/postemergence herbicide test; type: in vivo, Urochloa decumbens; conditions: for Surinam Grass plant response rating: postemergence
# Summary of the method: as §2
# wheat = test: Test B postemergence herbicide test; type: in vivo, Triticum aestivum; parameters: key to Wheat plant response rating: 0 = no effect, 100 = complete control; conditions: postemergence
# Summary of the method: as §5
# giant foxtail [9] = test: Test B pre-/postemergence herbicide test; type: in vivo, Setaria faberi; conditions: for Foxtail, Giant plant response rating: postemergence
# Summary of the method: as §2
# large crabgrass [10] = test: Test B pre-/postemergence herbicide test; type: in vivo, Digitaria sanguinalis; conditions: for Crabgrass, Large plant response rating: postemergence
# Summary of the method: as §2
# rice [11] = test: Test B flooded paddy test; type: in vivo, Oryza sativa; conditions: 1000 g ai/ha, scale 0 to 100 (0 no effect, 100 complete control)
# Summary of the method: as §5
# barnyardgrass [12] = test: Test A pre-/postemergence herbicide test; type: in vivo, Echinochloa crus-galli
# Summary of the method: as §3
# giant foxtail [13] = test: Test A pre-/postemergence herbicide test; type: in vivo, Setaria faberi
# Summary of the method: as §3
# [14] = system: small flower umbrella sedge; test: Test B flooded paddy test; type: in vivo, Cyperus difformis; conditions: 1000 g ai/ha, scale 0 to 100 (0 no effect, 100 complete control)
# Summary of the method: as §4
# [15] = 125 g ai/ha, 0 = no effect, 100 = complete control, preemergence
# [16] = 500 g ai/ha, visual rating, 0 = no effect, 100 = complete control, preemergence
# [17] = 125 g ai/ha, visual rating, scale 0 (no effect) to 100 (complete control)
# [18] = 500 g ai/ha, scale 0 to 100, 0 is no effect, 100 is complete control
# [19] = Postemergence, 500 g ai/ha, 0 to 100 scale, 0 no effect, 100 complete control
# [20] = Postemergence, 2000 g ai/ha, 0 to 100 scale, 0 no effect, 100 complete control
# [21] = Preemergence, 2000 g ai/ha, visual rating, 0 to 100 scale (0 no effect, 100 complete control)
# [22] = preemergence, 500 g ai/ha, visual injury, 0 to 100 scale (0 no effect, 100 complete control)
compound,measurement,setting,value
CCn1nc(C(C)(C)C)cc1C(=O)Nc1ccnc(C(=O)N2CC=CC2)c1 [Compound 282],Morningglory plant response rating (0 to 100 scale),morningglory [1]; [15],0
same,"Plant response rating, Morningglory",morningglory [1]; [16],0
same,Morningglory plant response rating,morningglory [1]; [17],10
same,Morningglory plant response rating,morningglory [1]; [18],20
same,Barnyardgrass plant response rating (0 to 100 scale),barnyardgrass [2]; [15],30
same,"Plant response rating, Barnyardgrass",barnyardgrass [2]; [16],50
same,Barnyardgrass plant response rating,barnyardgrass [2]; [17],0
same,Barnyardgrass plant response rating,barnyardgrass [2]; [18],20
same,Rice plant response rating (0 to 100 scale),rice [3]; 125 g ai/ha,10
same,"Plant response rating, Rice","rice [3]; 500 g ai/ha, visual rating",40
same,Velvetleaf plant response rating,velvetleaf [4]; [19],50
same,"Plant response rating, Velvetleaf",velvetleaf [4]; [20],50
same,Velvetleaf plant response rating,velvetleaf [4]; [21],45
same,Velvetleaf plant response rating,velvetleaf [4]; [22],20
same,Velvetleaf plant response rating (0 to 100 scale),velvetleaf [5]; [15],10
same,"Plant response rating, Velvetleaf",velvetleaf [5]; [16],30
same,Velvetleaf plant response rating,velvetleaf [5]; [17],10
same,Velvetleaf plant response rating,velvetleaf [5]; [18],20
same,Barnyardgrass plant response rating,barnyardgrass [6],20
same,"Crabgrass, Large plant response rating",large crabgrass [7]; [19],10
same,"Plant response rating, Crabgrass, Large",large crabgrass [7]; [20],25
same,"Crabgrass, Large plant response rating",large crabgrass [7]; [21],65
same,"Crabgrass, Large plant response rating",large crabgrass [7]; [22],40
same,Pigweed plant response rating (0 to 100 scale),pigweed; [15],100
same,"Plant response rating, Pigweed",pigweed; [16],100
same,Pigweed plant response rating,pigweed; [17],20
same,Pigweed plant response rating,pigweed; [18],60
same,Ducksalad plant response rating,ducksalad,80
same,"Oat, Wild plant response rating",wild oat; [17],0
same,"Oat, Wild plant response rating",wild oat; [18],20
same,Blackgrass plant response rating,blackgrass; [17],20
same,Blackgrass plant response rating,blackgrass; [18],30
same,Cocklebur plant response rating (0 to 100 scale),cocklebur; [15],0
same,"Plant response rating, Cocklebur",cocklebur; [16],0
same,Cocklebur plant response rating,cocklebur; [17],10
same,Cocklebur plant response rating,cocklebur; [18],20
same,Pigweed plant response rating,redroot pigweed; [19],75
same,"Plant response rating, Pigweed",redroot pigweed; [20],100
same,Pigweed plant response rating,redroot pigweed; [21],90
same,Pigweed plant response rating,redroot pigweed; [22],90
same,Morningglory plant response rating,morningglory [8]; [19],15
same,"Plant response rating, Morningglory",morningglory [8]; [20],15
same,Morningglory plant response rating,morningglory [8]; [21],40
same,Morningglory plant response rating,morningglory [8]; [22],10
same,Lambsquarters plant response rating (0 to 100 scale),lambsquarters; [15],100
same,"Plant response rating, Lambsquarters",lambsquarters; [16],100
same,Lambsquarters plant response rating,lambsquarters; [17],10
same,Lambsquarters plant response rating,lambsquarters; [18],60
same,Corn plant response rating (0 to 100 scale),corn; [15],0
same,"Plant response rating, Corn",corn; [16],0
same,Corn plant response rating,corn; [17],10
same,Corn plant response rating,corn; [18],20
same,Surinam Grass plant response rating (0 to 100 scale),Surinam grass; [15],0
same,"Plant response rating, Surinam Grass",Surinam grass; [16],20
same,Surinam Grass plant response rating,Surinam grass; [17],10
same,Surinam Grass plant response rating,Surinam grass; [18],10
same,Wheat plant response rating,wheat; [17],30
same,Wheat plant response rating,wheat; [18],30
same,"Foxtail, Giant plant response rating (0 to 100 scale)",giant foxtail [9]; [15],10
same,"Plant response rating, Foxtail, Giant",giant foxtail [9]; [16],20
same,"Foxtail, Giant plant response rating",giant foxtail [9]; [17],20
same,"Foxtail, Giant plant response rating",giant foxtail [9]; [18],20
same,"Crabgrass, Large plant response rating (0 to 100 scale)",large crabgrass [10]; [15],10
same,"Plant response rating, Crabgrass, Large",large crabgrass [10]; [16],80
same,"Crabgrass, Large plant response rating",large crabgrass [10]; [17],10
same,"Crabgrass, Large plant response rating",large crabgrass [10]; [18],10
same,Rice plant response rating,rice [11],20
same,Barnyardgrass plant response rating,barnyardgrass [12]; [19],40
same,"Plant response rating, Barnyardgrass",barnyardgrass [12]; [20],80
same,Barnyardgrass plant response rating,barnyardgrass [12]; [21],75
same,Barnyardgrass plant response rating,barnyardgrass [12]; [22],30
same,"Foxtail, Giant plant response rating",giant foxtail [13]; [19],20
same,"Plant response rating, Foxtail, Giant",giant foxtail [13]; [20],25
same,"Foxtail, Giant plant response rating",giant foxtail [13]; [21],40
same,"Foxtail, Giant plant response rating",giant foxtail [13]; [22],10
same,"Sedge, Umbrella plant response rating",[14],0
